One test concerns the target T1, NS3-NS4 protease (Hepatitis C virus genotype 1a, UniProt P27958).
T1 construct: Recombinant E. coli or Baculovirus full-length NS3 was diluted to 3.33 μM with assay buffer; made in house; host or cells: E. coli or baculovirus (BV) system
The experiment in a line: NS3-NS4 protease assay / NS3 inhibition assay, Section D. The format is biochemical. As to the method:
NS3-NS4 Protease Assay NS3 complex formation with NS4A-2.
Recombinant E. coli or Baculovirus full-length NS3 was diluted to 3.33 μM with assay buffer and transferred material to an eppendorf tube and place in water bath in 4° C. refrigerator. The appropriate amount of NS4A-2 to 8.3 mM in assay buffer was added to equal the volume of NS3 in step 2.1.1 (conversion factor −3.8 mg/272 μL assay buffer). The material was transferred to an eppendorf tube and place in water bath in 4° C. refrigerator.
After equilibration to 4° C., equal volumes of NS3 and NS4A-2 solutions were combined in an eppendorf tube, mix gently with a manual pipettor, and incubate mixture for 15 minutes in the 4° C. water bath. Final concentrations in the mixture are 1.67 μM NS3, 4.15 mM NS4A-2 (2485-fold molar excess NS4A-2).
After 15 minutes at 4° C., the NS3/NS4A-2 eppendorf tube was removed and placed in a room temperature water bath for 10 minutes. NS3/NS4A-2 was alliquoted at appropriate volumes and store at −80° C. (E. coli NS3 run at 2 nM in assay, aliquot at 25 μL. BV NS3 run at 3 nM in assay, aliquot at 30 μL).
Sample compounds were dissolved to 10 mM in DMSO then diluted to 2.5 mM (1:4) in DMSO.
The E. coli. NS3/NS4A-2 was diluted to 4 nM NS3 (1:417.5 of 1.67 μM stock−18 μL 1.67 μM stock+7497 μL assay buffer).
The BV NS3/NS4A-2 was diluted to 6 nM NS3 (1:278.3 of 1.67 μM stock−24 μL 1.67 μM stock+6655 μL assay buffer).
Using the manual multichannel pipettor, careful not to introduce bubbles into the plate, add 50 μL assay buffer to wells A01-H01 of a black Costar 96-well polypropylene storage plate.
Using the manual multichannel pipettor, careful not to introduce bubbles into the plate, add 50 μL of diluted NS3/NS4A-2 from step 2.2.6 to wells A02-H12 of plate in step 2.2.7.
Using the manual multichannel pipettor, careful not to introduce bubbles into the plate, transfer 25 μL of the wells in drug dilution plate in step 2.2.5 to corresponding wells in assay plate in step 2.2.8. Change tips on multichannel pipettor for each row of compounds transferred.
Using the manual multichannel pipettor, careful not to introduce bubbles into the plate, mix the wells from the assay plate in step 2.2.9 by aspirating and dispensing 35 μL of the 75 μL in each well five times. Change tips on multichannel pipettor for each row of wells mixed.
Cover plate with a polystyrene plate lid and pre-incubate the plate from step 2.2.10 containing NS3 protease and sample compounds 10 minutes at room temperature.
While plate from step 2.2.11 is pre-incubating, dilute RETS1 substrate in a 15 mL polypropylene centrifuge tube.
Dilute RETS1 substrate to 8 μM (1:80.75 of 646 μM stock−65 μL 646 μM stock+5184 μL assay buffer).
After the plate in step is done pre-incubating, and using the manual multichannel, add 25 μL of substrate to all wells on the plate. Quickly mix the plate as in step 2.2.10, mixing 65 μL of the 100 μL in the wells.
Read the plate in kinetic mode on the Molecular Devices SpectraMax Gemini XS plate reader. Reader settings: Read time: 30 minutes, Interval: 36 seconds, Reads: 51, Excitation k: 335 nm, Emission k: 495 nm, cutoff: 475 nm, Automix: off, Calibrate: once, PMT: high, Reads/well: 6, Vmax pts: 21 or 28/51 depending on length of linearity of reaction.
IC50s are determined using a four parameter curve fit equation, and converted to Ki's using the following Km's:
where Ki=IC50/(1+[S]/Km))

For another test, the target named is T2, NS3-NS4A protease (Hepatitis C virus genotype 1a, UniProt P27958).
T2 construct: Recombinant E. coli or Baculovirus full-length NS3 was diluted to 3.33 μM with assay buffer; made in house; host or cells: E. coli or baculovirus (BV) system
As to the kind of experiment: NS3-NS4A protease assay (NS3 inhibition assay, RETS1 substrate), Section B. The note with it: read-out: NS3-NS4A IC50. It is filed as biochemical. The gist of the method: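 Full-length NS3 (E. coli or baculovirus) precomplexed with excess NS4A-2 peptide, run at 2 nM (E. coli) or 3 nM (BV) NS3; compounds pre-incubated 10 min at room temperature before RETS1 substrate. Fluorescence (ex 335/em 495 nm) read kinetically 30 min; IC50 from four-parameter fit, converted to Ki via Ki=IC50/(1+[S]/Km).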

The test system of test [1] is HCV sub-genomic replicon, GS4.3. As to the kind of experiment: Quantitation by ELISA of NPTII in the HCV sub-genomic replicon, GS4.3, Section B. As to conditions: Hepatitis C virus; GS4.3 cells, 72 h incubation; read-out: Replicon EC50. It is filed as cell-based. The gist of the method: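 GS4.3 cells (HuH-7 carrying HCV 1377/NS3-3′ replicon) were treated 72 h at 37 °C with inhibitors in 3-fold dilutions, 1% DMSO, no G418. Lysate NPTII was measured by ELISA (TMB, 450 nm). Signal as % of DMSO control; EC50 from 4-parameter fit.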
(ELISA stands for enzyme-linked immunosorbent assay.)

Where only a bound is given, the exact number is not on record here.

T1 sequence (P27958 1027-1657): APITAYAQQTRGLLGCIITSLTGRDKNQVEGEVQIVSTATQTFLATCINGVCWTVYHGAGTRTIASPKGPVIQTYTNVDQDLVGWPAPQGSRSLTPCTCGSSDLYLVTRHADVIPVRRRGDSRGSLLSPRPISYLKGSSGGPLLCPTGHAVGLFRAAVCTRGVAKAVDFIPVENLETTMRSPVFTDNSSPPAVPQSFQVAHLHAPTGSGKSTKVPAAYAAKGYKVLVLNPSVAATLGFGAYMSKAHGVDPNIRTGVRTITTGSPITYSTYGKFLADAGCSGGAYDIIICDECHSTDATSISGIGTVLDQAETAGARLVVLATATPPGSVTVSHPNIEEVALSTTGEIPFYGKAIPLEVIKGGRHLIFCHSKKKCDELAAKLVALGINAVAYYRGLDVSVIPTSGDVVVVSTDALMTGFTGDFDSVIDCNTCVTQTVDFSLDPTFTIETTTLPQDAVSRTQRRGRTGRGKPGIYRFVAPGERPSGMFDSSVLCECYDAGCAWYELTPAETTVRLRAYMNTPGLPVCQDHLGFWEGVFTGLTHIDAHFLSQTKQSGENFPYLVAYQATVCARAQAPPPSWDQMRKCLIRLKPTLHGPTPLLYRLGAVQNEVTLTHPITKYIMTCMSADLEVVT
T2 sequence (P27958 1027-1657): as above

What is called IC50 is the concentration that gives 50% inhibition. In the case of `COc1ccc(C(=O)N[C@@H]2C[C@H]3C(=O)N[C@]4(C(=O)NS(=O)(=O)C5CC5)C[C@H]4/C=C\CCCCC[C@H](NC(=O)OC(C)(C)C)C(=O)N3C2)cc1` [Example 6], the 50% inhibitory concentration (IC50) on NS3-NS4 protease was less than 0.1 µM.

As to `CN(C)c1ccc(C(=O)N[C@@H]2C[C@H]3C(=O)N[C@]4(C(=O)NS(=O)(=O)C5CC5)C[C@H]4/C=C\CCCCC[C@H](NC(=O)OC(C)(C)C)C(=O)N3C2)cn1` [Example 13], on NS3-NS4 protease, the IC50 was less than 0.1 µM.

At NS3-NS4 protease, `CC(C)(C)NC(=O)N[C@H]1CCCCC/C=C\[C@@H]2C[C@@]2(C(=O)NS(=O)(=O)C2CC2)NC(=O)[C@@H]2C[C@@H](NC(=O)c3sc4cc(F)ccc4c3Cl)CN2C1=O` [Example 55] gave a concentration for half-maximal inhibition (IC50) of less than 0.1 µM. On the same count and under the same terms, next, `CC(C)(C)OC(=O)N[C@H]1CCCCC/C=C\[C@@H]2C[C@@]2(C(=O)NS(=O)(=O)C2CC2)NC(=O)[C@@H]2C[C@@H](NC(=O)c3ccc(Cl)cc3)CN2C1=O` [Example 4]: less than 0.1 µM; `CC(C)(C)OC(=O)N[C@H]1CCCCC/C=C\[C@@H]2C[C@@]2(C(=O)O)NC(=O)[C@@H]2C[C@@H](NC(=O)c3cc4ccccc4o3)CN2C1=O` [Example 66]: less than 1 µM.

`O=C(N[C@H]1CCCCC/C=C\[C@@H]2C[C@@]2(C(=O)NS(=O)(=O)C2CC2)NC(=O)[C@@H]2C[C@@H](NC(=O)c3sc4ccccc4c3Cl)CN2C1=O)OCC1CC1` [Example 52] gave an IC50 against NS3-NS4 protease of less than 0.1 µM. `Cn1c(C(=O)N[C@@H]2C[C@H]3C(=O)N[C@]4(C(=O)NS(=O)(=O)C5CC5)C[C@H]4/C=C\CCCCC[C@H](NC(=O)OC(C)(C)C)C(=O)N3C2)cc2ccccc21` [Example 35] came in with an IC50 against NS3-NS4 protease of less than 0.1 µM. As to `CC(C)(C)OC(=O)N[C@H]1CCCCC/C=C\[C@@H]2C[C@@]2(C(=O)NS(=O)(=O)C2CC2)NC(=O)[C@@H]2C[C@@H](NC(=O)c3cc4cc(Cl)ccc4o3)CN2C1=O` [Example 40], the IC50 against NS3-NS4 protease was less than 0.1 µM.

`COc1cc2cc(C(=O)N[C@@H]3C[C@H]4C(=O)N[C@]5(C(=O)NS(=O)(=O)C6CC6)C[C@H]5/C=C\CCCCC[C@H](NC(=O)OC(C)(C)C)C(=O)N4C3)[nH]c2cc1OC` [Example 37] returned a 50% inhibitory concentration (IC50) on NS3-NS4 protease of less than 0.1 µM.

In the case of `CC(C)(C)OC(=O)N[C@H]1CCCCC/C=C\[C@@H]2C[C@@]2(C(=O)NS(=O)(=O)C2CC2)NC(=O)[C@@H]2C[C@@H](NC(=O)c3csc(-c4ccc(Cl)cc4)n3)CN2C1=O` [Example 26], the IC50 on NS3-NS4 protease is less than 0.1 µM. `CC(C)(C)OC(=O)N[C@H]1CCCCC/C=C\[C@@H]2C[C@@]2(C(=O)O)NC(=O)[C@@H]2C[C@@H](NC(=O)c3sc4ccccc4c3Cl)CN2C1=O` [Example 64] returned an IC50 against NS3-NS4 protease of less than 1 µM.

`CC(C)(C)OC(=O)N[C@H]1CCCCC/C=C\[C@@H]2C[C@@]2(C(=O)NS(=O)(=O)C2CC2)NC(=O)[C@@H]2C[C@@H](NC(=O)c3cc4cc(F)ccc4[nH]3)CN2C1=O` [Example 34] yielded a concentration for half-maximal inhibition (IC50) at NS3-NS4 protease of less than 0.1 µM. As usually defined, the EC50 is the concentration that produces a half-maximal response. Turning to `CC(C)(C)OC(=O)N[C@H]1CCCCC/C=C\[C@@H]2C[C@@]2(C(=O)NS(=O)(=O)C2CC2)NC(=O)[C@@H]2C[C@@H](OC(=O)N3CCc4cc(F)ccc4C3)CN2C1=O` [AR00301751, (1S,4R,6S,14S,18R)-6-Fluoro-3,4-dihydro-1H-isoquinoline-2-carboxylic acid 14-tert-butoxycarbonylamino-4-cyclopropanesulfonylaminocarbonyl-2,15-dioxo-3,16-diaza-tricyclo[14.3.0.0^4,6]nonadec-7-en-18-yl ester], at NS3-NS4A protease, the 50% inhibitory concentration (IC50) is less than 0.1 µM. Also, the EC50 in test [1] was less than 0.1 µM. `CN(C)c1ccc(S(=O)(=O)NC(=O)[C@@]23C[C@H]2/C=C\CCCCC[C@H](NC(=O)OC(C)(C)C)C(=O)N2C[C@H](OC(=O)N4Cc5ccccc5C4)C[C@H]2C(=O)N3)cc1` [AR00365572, (1S,4R,6S,14S,18R)-1,3-Dihydro-isoindole-2-carboxylic acid 14-tert-butoxycarbonylamino-4-(4-dimethylamino-benzenesulfonylaminocarbonyl)-2,15-dioxo-3,16-diaza-tricyclo[14.3.0.0^4,6]nonadec-7-en-18-yl ester]: the IC50 on NS3-NS4A protease is less than 0.1 µM. The EC50 in test [1] was less than 0.1 µM.

For the molecule `CC(C)(C)OC(=O)N[C@H]1CCCCC/C=C\[C@@H]2C[C@@]2(C(=O)NS(=O)(=O)C2CC2)NC(=O)[C@@H]2C[C@@H](OC(=O)N3Cc4ccccc4C3)CN2C1=O` [AR00294381, (1S,4R,6S,14S,18R)-1,3-Dihydro-isoindole-2-carboxylic acid 14-tert-butoxycarbonylamino-4-cyclopropanesulfonylaminocarbonyl-2,15-dioxo-3,16-diaza-tricyclo[14.3.0.0^4,6]nonadec-7-en-18-yl ester], at NS3-NS4A protease, the IC50 was less than 0.1 µM. Further, in test [1], the half-maximal effective concentration (EC50) was less than 0.1 µM.

In the case of `O=C(N[C@H]1CCCCC/C=C\[C@@H]2C[C@@]2(C(=O)O)NC(=O)[C@@H]2C[C@@H](OC(=O)N3CCc4ccccc4C3)CN2C1=O)OC1CCOCC1` [AR00320002, (1S,4R,6S,14S,18R)-18-(3,4-Dihydro-1H-isoquinoline-2-carbonyloxy)-2,15-dioxo-14-(tetrahydro-pyran-4-yloxycarbonylamino)-3,16-diaza-tricyclo[14.3.0.0^4,6]nonadec-7-ene-4-carboxylic acid], the IC50 at NS3-NS4A protease was less than 1 µM. Further, in test [1], the EC50 is less than 10 µM. In the case of `C[C@H]1CN(C(=O)O[C@@H]2C[C@H]3C(=O)N[C@]4(C(=O)O)C[C@H]4C=CCCCCC[C@H](NC(=O)OC(C)(C)C)C(=O)N3C2)Cc2ccccc21` [AR00320122, (1S,4R,6S,14S,18R)-14-tert-Butoxycarbonylamino-18-(4R-methyl-3,4-dihydro-1H-isoquinoline-2-carbonyloxy)-2,15-dioxo-3,16-diaza-tricyclo[14.3.0.0^4,6]nonadec-7-ene-4-carboxylic acid], the half-maximal inhibitory concentration (IC50) at NS3-NS4A protease was less than 1 µM. Also, in test [1], the EC50 is less than 10 µM.

In the case of `O=C(NC1CCCC1)N[C@H]1CCCCC/C=C\[C@@H]2C[C@@]2(C(=O)NS(=O)(=O)C2CC2)NC(=O)[C@@H]2C[C@@H](OC(=O)N3Cc4ccc(Cl)cc4C3)CN2C1=O` [AR00320574, (1S,4R,6S,14S,18R)-5-Chloro-1,3-dihydro-isoindole-2-carboxylic acid 14-(3-cyclopentyl-ureido)-4-cyclopropanesulfonylaminocarbonyl-2,15-dioxo-3,16-diaza-tricyclo[14.3.0.0^4,6]nonadec-7-en-18-yl ester], the IC50 on NS3-NS4A protease is less than 0.1 µM. Moreover, the EC50 in test [1] was less than 0.1 µM. In the case of `O=C(N[C@H]1CCCCC/C=C\[C@@H]2C[C@@]2(C(=O)NS(=O)(=O)C2CC2)NC(=O)[C@@H]2C[C@@H](OC(=O)N3CCc4ccccc4C3)CN2C1=O)OC(CF)CF` [AR00320580, (1S,4R,6S,14S,18R)-3,4-Dihydro-1H-isoquinoline-2-carboxylic acid 4-cyclopropanesulfonylaminocarbonyl-14-(2-fluoro-1-fluoromethyl-ethoxycarbonylamino)-2,15-dioxo-3,16-diaza-tricyclo[14.3.0.0^4,6]nonadec-7-en-18-yl ester], the IC50 on NS3-NS4A protease is less than 0.1 µM. Further, the EC50 in test [1] was less than 0.1 µM.

Source of the values: patent US7491794B2, “Macrocyclic compounds as inhibitors of viral replication” (Intermune, Inc., priority 2003, dated 2009).
